From the supplement of paper PMC11451515

Assays:
P12-Ichikawa [1] = assay: cell viability relative to DMSO control; higher = less cytotoxic; settings: HPLM + 10% dialyzed FBS, 48 h
Procedure, shortened: (§1)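 Library compounds in DMSO were pin-dosed in an 11-point threefold series (47 μM to 0.79 nM) onto leukemia cells in 1536-well plates (5 μl). Plates held 500 cells/well of NOMO1 or SEM or 1000 cells/well of P12-Ichikawa, each adapted for at least four passages in each medium. Luminescence was read with CellTiter-Glo One after 48 h at 37°C. Viability means the per-plate percentage relative to DMSO wells, using cell-free wells as background.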

SEM cells [2] = assay: as above; settings: HPLM + 10% dialyzed FBS, 48 h
Procedure, shortened: as §1

NOMO1 [3] = assay: AUC of viability dose-response curve (% viability x log10 dose units); higher = less sensitive; settings: 48 h
Procedure, shortened: (§2)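 Area under the curve was integrated by trapezoidal rule from a log-logistic fit of normalised viability, with curves exceeding full viability scaled and quality-control failures removed. The fit had four parameters over log10 doses. Viability came from CellTiter-Glo One luminescence, normalised per plate to DMSO and cell-free wells, after leukemia cells adapted to each medium (500 or 1000 cells/well, 1536-well plates) were exposed to library compounds in DMSO for 48 h at 37°C. The 11 threefold doses ran from 47 μM to 0.79 nM.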

P12-Ichikawa [4] = assay: as above; settings: 48 h
Procedure, shortened: as §2

SEM cells [5] = assay: as above; settings: 48 h
Procedure, shortened: as §2

NOMO1 [6] = assay: cell viability relative to DMSO control; higher = less cytotoxic; settings: 48 h
Procedure, shortened: as §1

CCCCCCOC(=O)/N=C(/N)c1ccc(NCc2nc3cc(C(=O)N(CCC(=O)OCC)c4ccccn4)ccc3n2C)cc1
Settings | AUC of viability dose-response curve | cell viability [%]
NOMO1 [3], HPLM + 10% dialyzed FBS | 443 | –
NOMO1 [3], RPMI 5 mM glucose + 10% FBS | 449 | –
NOMO1 [3], RPMI 5 mM glucose + 10% dialyzed FBS | 449 | –
P12-Ichikawa [1], 0.000781 µM | – | 114
P12-Ichikawa [1], 0.00234 µM | – | 130
P12-Ichikawa [1], 0.00702 µM | – | 122
P12-Ichikawa [1], 0.0211 µM | – | 131
P12-Ichikawa [1], 0.0632 µM | – | 109
P12-Ichikawa [1], 0.19 µM | – | 138
P12-Ichikawa [1], 0.569 µM | – | 138
P12-Ichikawa [1], 1.71 µM | – | 125
P12-Ichikawa [1], 5.12 µM | – | 145
P12-Ichikawa [1], 15.4 µM | – | 121
P12-Ichikawa [1], 46.1 µM | – | 106
P12-Ichikawa [4], HPLM + 10% dialyzed FBS | 475 | –
P12-Ichikawa [4], RPMI 5 mM glucose + 10% FBS | 465 | –
P12-Ichikawa [4], RPMI 5 mM glucose + 10% dialyzed FBS | 467 | –
SEM cells [2], 0.000781 µM | – | 112
SEM cells [2], 0.00234 µM | – | 113
SEM cells [2], 0.00702 µM | – | 124
SEM cells [2], 0.0211 µM | – | 125
SEM cells [2], 0.0632 µM | – | 123
SEM cells [2], 0.19 µM | – | 125
SEM cells [2], 0.569 µM | – | 129
SEM cells [2], 1.71 µM | – | 134
SEM cells [2], 5.12 µM | – | 145
SEM cells [2], 15.4 µM | – | 137
SEM cells [2], 46.1 µM | – | 125
SEM cells [5], HPLM + 10% dialyzed FBS | 448 | –
SEM cells [5], RPMI 5 mM glucose + 10% FBS | 468 | –
SEM cells [5], RPMI 5 mM glucose + 10% dialyzed FBS | 475 | –

Cc1cc2c(cc1C1(c3ccc(C(=O)O)cn3)CC1)C(C)(C)CCC2(C)C
AUC of viability dose-response curve
Settings | NOMO1 [3] | P12-Ichikawa [4] | SEM cells [5]
HPLM + 10% dialyzed FBS | 371 | 433 | 458
RPMI 5 mM glucose + 10% FBS | 429 | 435 | 418
RPMI 5 mM glucose + 10% dialyzed FBS | 417 | 429 | 407

O=C(CCN1CCN(C(=O)OCc2cc(Cl)cc(Cl)c2)CC1)c1ccc2[nH]c(=O)oc2c1
AUC of viability dose-response curve
Settings | NOMO1 [3] | P12-Ichikawa [4] | SEM cells [5]
HPLM + 10% dialyzed FBS | 470 | 466 | 472
RPMI 5 mM glucose + 10% FBS | 431 | 454 | 465
RPMI 5 mM glucose + 10% dialyzed FBS | 448 | 459 | 469

CC(=O)Nc1ccc(O)cc1
AUC of viability dose-response curve
Settings | NOMO1 [3] | P12-Ichikawa [4] | SEM cells [5]
HPLM + 10% dialyzed FBS | 464 | 455 | 472
RPMI 5 mM glucose + 10% FBS | 459 | 458 | 476
RPMI 5 mM glucose + 10% dialyzed FBS | 463 | 470 | 467

CC[C@H](NC(=O)[C@H](C)NC)C(=O)N1C[C@@H](O)C[C@H]1Cc1c(-c2[nH]c3cc(F)ccc3c2C[C@@H]2C[C@H](O)CN2C(=O)[C@H](CC)NC(=O)[C@H](C)NC)[nH]c2cc(F)ccc12
cell viability [%], NOMO1 [6]
Settings | HPLM + 10% dialyzed FBS | RPMI 5 mM glucose + 10% dialyzed FBS
0.000781 µM | 113 | 113
0.00234 µM | 112 | 122
0.00702 µM | 123 | 145
0.0211 µM | 114 | 150
0.0632 µM | 126 | 150
0.19 µM | 110 | 128
0.569 µM | 89.9 | 115
1.71 µM | 67.3 | 106
5.12 µM | 22.6 | 17.3
15.4 µM | 20.3 | 16.2
46.1 µM | 21.8 | 12.5

Settings | AUC of viability dose-response curve, NOMO1 [3] | AUC of viability dose-response curve, SEM cells [5] | cell viability, P12-Ichikawa [1] [%] | cell viability, SEM cells [2] [%]
0.000781 µM | – | – | 115 | 90.7
0.00234 µM | – | – | 129 | 122
0.00702 µM | – | – | 124 | 116
0.0211 µM | – | – | 137 | 116
0.0632 µM | – | – | 137 | 136
0.19 µM | – | – | 125 | 134
0.569 µM | – | – | 139 | 129
1.71 µM | – | – | 131 | 134
5.12 µM | – | – | 32.8 | 112
15.4 µM | – | – | 31.3 | 119
46.1 µM | – | – | 110 | 88.2
HPLM + 10% dialyzed FBS | 347 | 469 | – | –
RPMI 5 mM glucose + 10% FBS | 323 | 442 | – | –
RPMI 5 mM glucose + 10% dialyzed FBS | 362 | 437 | – | –
